Data from patent publication US8663912B2, “Fluorogenic substrate for ADAMTS13” (Washington University, priority 2011, dated 2014).
Several values for one entry are separate records, joined by “and”; a condition that tells them apart may be missing. Identical values can stand only once. * marks the point of attachment. X1 = CC1(C)C(/C=C/C2=C(Cl)C(=C/C=C3/N(CCCCCC(=O)*)c4ccc5cc(S(=O)(=O)O)ccc5c4C3(C)C)/CCC2)=[N+](CCCS(=O)(=O)[O-])c2ccc(N(CCCS(=O)(=O)O)CCCS(=O)(=O)O)cc21; X2 = CC(C)(C)c1cc(/C=C/C=C2\N(CCCS(=O)(=O)O)c3ccc(S(=O)(=O)O)cc3C2(C)CCCC(=O)CCN2C(=O)CC(*)C2=O)c2ccc(N(CCCS(=O)(=O)[O-])CCCS(=O)(=O)O)cc2[o+]1

Biological target: T1, ADAMTS13 (Homo sapiens, UniProt Q76LX8)
T1 sequence (Q76LX8 75-1427): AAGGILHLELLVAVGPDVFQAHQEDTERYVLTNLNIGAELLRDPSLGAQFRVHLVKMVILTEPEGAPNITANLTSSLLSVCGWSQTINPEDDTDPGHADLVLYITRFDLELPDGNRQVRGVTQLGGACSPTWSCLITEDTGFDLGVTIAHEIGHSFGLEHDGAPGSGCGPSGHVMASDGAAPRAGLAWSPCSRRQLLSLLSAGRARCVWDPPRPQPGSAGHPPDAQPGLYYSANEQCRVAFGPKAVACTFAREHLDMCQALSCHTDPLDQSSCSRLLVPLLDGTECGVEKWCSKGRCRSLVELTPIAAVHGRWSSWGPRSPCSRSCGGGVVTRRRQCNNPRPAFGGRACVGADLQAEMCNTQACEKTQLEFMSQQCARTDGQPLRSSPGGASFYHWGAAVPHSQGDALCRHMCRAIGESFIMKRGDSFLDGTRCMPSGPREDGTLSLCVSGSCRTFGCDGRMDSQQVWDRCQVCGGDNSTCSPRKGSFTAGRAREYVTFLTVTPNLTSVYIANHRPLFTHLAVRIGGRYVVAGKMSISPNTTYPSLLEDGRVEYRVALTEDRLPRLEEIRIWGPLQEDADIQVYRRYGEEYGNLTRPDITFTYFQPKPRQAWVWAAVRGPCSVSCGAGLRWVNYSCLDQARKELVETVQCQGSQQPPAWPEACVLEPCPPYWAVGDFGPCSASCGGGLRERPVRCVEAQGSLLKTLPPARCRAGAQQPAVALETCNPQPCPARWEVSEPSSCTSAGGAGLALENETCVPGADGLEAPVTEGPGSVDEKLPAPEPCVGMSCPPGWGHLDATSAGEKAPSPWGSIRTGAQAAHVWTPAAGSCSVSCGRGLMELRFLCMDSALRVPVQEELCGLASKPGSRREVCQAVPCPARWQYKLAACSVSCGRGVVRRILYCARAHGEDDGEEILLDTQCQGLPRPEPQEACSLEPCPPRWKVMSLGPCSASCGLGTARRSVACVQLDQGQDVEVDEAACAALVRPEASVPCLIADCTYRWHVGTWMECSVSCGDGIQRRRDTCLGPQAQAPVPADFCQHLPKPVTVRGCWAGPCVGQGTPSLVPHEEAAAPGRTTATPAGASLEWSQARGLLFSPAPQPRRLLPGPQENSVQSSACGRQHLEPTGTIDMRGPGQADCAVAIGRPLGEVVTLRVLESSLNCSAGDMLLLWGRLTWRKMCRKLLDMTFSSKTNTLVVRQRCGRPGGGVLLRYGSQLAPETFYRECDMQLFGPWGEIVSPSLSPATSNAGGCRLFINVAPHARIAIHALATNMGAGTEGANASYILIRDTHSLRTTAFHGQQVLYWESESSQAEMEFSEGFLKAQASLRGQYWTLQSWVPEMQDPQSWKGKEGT
Test: Fluorogenic ADAMTS13 activity assay, signal and sensitivity compared between substrates
Type: biochemical
Design: from tissue; host or cells: human plasma (TTP patients, healthy controls)
Procedure: In these experiments, the FRETS-rVWF71 substrate was utilized in a microtiter format (FIG. 2), which is compatible with fluorescence plate readers that are supported by laboratory equipment suppliers and available in many clinical hemostasis laboratories, such as the BIO-TEK FLx800 Fluorometer from DiaPharma (West Chester, Ohio) or Technoclone (Vienna). Reactions were performed in 200 μL 5 mM Bis-Tris, pH 6, 25 mM CaCl2, at room temperature with added plasma as shown (FIG. 2). Fluorescence was monitored in a Victor^2 V microplate reader (Perkin Elmer Life Sciences, Boston, Mass.) with 638 nm excitation filter and 658 nm emission filter.
Using 1 μM substrate with varying amounts of plasma or serum and optimal filters for each substrate, ΔF/min for VWF-rFRETS71 is 8-fold greater compared to VWF-FRETS73. In addition, assays with VWF-rFRETS71 are linear with time and linear with enzyme up to >95% serum or plasma added, with no significant background fluorescence or interference from blood constituents. The combination of stronger fluorescence signal and compatibility with undiluted plasma make FRETS-rVWF71 ˜250-fold more sensitive than FRETS-VWF73.
Assays were performed at 30° C. Samples (100 μL) of plasma or serum, diluted as necessary in assay buffer, were pipetted in duplicate in 96 well white microplates (Optiplate-96, PerkinElmer, Waltham, Mass.). Reaction was initiated by addition of 100 μL substrate in assay buffer. Cleavage of FRETS-rVWF71 was detected as an increase in fluorescence compared to control reactions without added enzyme at 2 min intervals using a Victor^2V Multilabel Counter (PerkinElmer, Waltham, Mass.) or Synergy H1 Hybrid Multi-Mode Microplate Reader (Biotek, Winooski, Vt.) equipped with 635±10 nm excitation and 660±10 nm emission filters. Initial velocities were determined by fitting progress curves to the polynomial ΔF=A+Bt+Ct^2, where ΔF is the change in fluorescence, t is time, A is the y-intercept, B is the initial velocity (slope), and the term Ct^2 accounts for any decline in velocity due to substrate consumption or photobleaching.
ADAMTS13 assays with the FRETS-VWF73 substrate (Kokame, K., et al. Br. J. Haematol. 129:93-100, 2005) (Peptide International, Louisville, Ky.) were performed according to the manufacturer's instructions. Hemoglobin was prepared by hypotonic lysis of red blood cells from a voluntary donor and quantified with Drabkin's reagent (Sigma, St. Louis, Mo.).
Results with FRETS-rVWF71 and FRETS-VWF73 assayed under standard conditions (Kokame, K., et al. Br. J. Haematol. 129:93-100, 2005) correlated well with an inter-assay CV of 3.8%. Using 1 μM substrate and 5 μL PNP, the change in fluorescence (ΔF/min) for FRETS-rVWF71 (50 mM HEPES, pH 7.4, 150 mM NaCl) was 8-fold greater than for FRETS-VWF73 (5 mM Bis-Tris, pH 6).

## X1-GQAPNLVYMVTGC(X2)PASDEIRRLPGDIQVVPIGVGPNANVQELERIGWPNAPILIQDFETLPREAPDLVLQR [FRETS-rVWF71]
1 μM substrate, 5 μL PNP, FRETS-rVWF71 in 50 mM HEPES pH 7.4, 150 mM NaCl, FRETS-VWF73 in 5 mM Bis-Tris pH 6
  change in fluorescence (ΔF/min) greater than for FRETS-VWF73: 8 fold
1 μM substrate, varying amounts of plasma or serum, optimal filters for each substrate
  ΔF/min greater compared to FRETS-VWF73: 8 fold
Equal concentrations of plasma as the enzyme source
  assay sensitivity relative to FRETS-VWF73: approximately 8 fold
Stronger fluorescence signal combined with undiluted plasma
  overall sensitivity relative to FRETS-VWF73: ~250 fold and 240 fold
Use in undiluted plasma
  further increase of sensitivity relative to FRETS-VWF73: 30 fold
